Measurements reported in ChEMBL document CHEMBL1201862, “PubChem BioAssay data set” (2004).
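Assay format: 96-well plates, 48-hour exposure. GI50: concentration for 50% inhibition of growth.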 The source made the active and inactive calls. Cut-off read from the data, not from the text of the source: active = GI50 up to about 1.1 µM and inactive = higher.

How the values were obtained:
Test in all cases: NCI-60 cell line screen, 48 h
[1] = test system: MDA-MB-435
[2] = test system: TK-10
[3] = test system: DU-145
[4] = test system: UO-31
[5] = test system: MOLT-4
[6] = test system: UACC-257
[7] = test system: CCRF-CEM
[8] = test system: Hs-578T
[9] = test system: NCI-H226
[10] = test system: NCI-H460
[11] = test system: SW-620
[12] = test system: RXF 393
[13] = test system: SNB-75
[14] = test system: CAKI-1
[15] = test system: NCI/ADR-RES
[16] = test system: IGROV-1
[17] = test system: HT-29
[18] = test system: OVCAR-5
[19] = test system: SK-MEL-2

Measured: GI50

O=C1/C(=C/c2ccc(Cl)cc2)Oc2cc(O)ccc21 [6-HYDROXY-4'-CHLORO AURONE]
inactive: [1] 36.1 µM | [2] 30.5 µM | [3] 41.4 µM | [4] 20.5 µM | [5] 19.6 µM | [6] 31.2 µM | [7] 20.2 µM | [8] 14.7 µM | [9] 28.2 µM | [10] 25.1 µM | [11] 44.6 µM | [12] 39.4 µM | [13] 31.6 µM | [14] > 10 µM | [15] 24.9 µM | [16] 33.4 µM

Cc1ccc(C2=NOC(=O)[C@@H]3CCCC[C@@H]23)cc1
inactive: [17] > 100 µM | [1] > 100 µM | [2] > 100 µM | [3] 27.2 µM | [4] > 100 µM | [5] > 100 µM | [6] > 100 µM | [7] > 100 µM | [8] > 100 µM | [9] > 100 µM | [11] > 100 µM | [12] > 100 µM | [13] > 100 µM | [14] > 100 µM | [18] > 100 µM | [15] > 100 µM | [16] > 100 µM

NC(=O)Cn1c(=O)oc2cc(C(=O)CN3CCOCC3)ccc21
inactive: [17] > 100 µM | [1] > 100 µM | [3] > 100 µM | [5] > 100 µM | [19] > 100 µM | [7] > 100 µM | [8] > 100 µM | [9] > 100 µM | [11] > 100 µM | [12] > 100 µM | [13] 18.5 µM | [14] > 100 µM | [18] > 100 µM | [15] > 100 µM | [16] > 100 µM

Cc1cccc2nc3c(=O)[nH]c(=O)nc-3n(C)c12
inactive: [17] 33.2 µM | [1] 17.6 µM | [2] > 100 µM | [3] > 100 µM | [5] 43 µM | [19] 48.8 µM | [6] 34.4 µM | [7] 28.6 µM | [8] 86.9 µM | [9] > 100 µM | [10] 48.1 µM | [11] 39.9 µM | [12] > 100 µM | [13] > 100 µM | [14] > 100 µM | [18] > 100 µM | [15] 82.2 µM | [16] > 100 µM

CSCC[C@H]1C(=O)N=C(N)N1C(=O)OCc1ccccc1
inactive: [17] 38.3 µM | [1] 34 µM | [2] 37.9 µM | [3] > 100 µM | [4] 30.8 µM | [5] 18.7 µM | [19] > 100 µM | [6] 40.6 µM | [8] 18 µM | [9] 30 µM | [10] 41 µM | [11] 17.1 µM | [12] 17.3 µM | [13] 60.7 µM | [14] 20 µM | [18] > 100 µM | [15] 30.8 µM | [16] 63.7 µM
